Data set [1] deals with human ovarian cancer cell line A2780. Kind of data set: Growth inhibition assay (CellTiter 96 Non-Rad Cell Proliferation Assay). In kind it is cell-based. The conditions noted are these: for IC50 / Emax: Homo sapiens. Here is the method:
To illustrate the general activity of the compounds inhibiting growth of human […] ovarian cancer cells, selected compounds were synthesized and evaluated. The compounds were dissolved in DMSO at a concentration of 0.01 M. The human ovarian cancer cell line A2780 was plated in 96-well tissue culture dishes at a concentration of 3000 cells per well in RPMI medium supplemented with 10% fetal bovine serum and a mixture of antibiotics and antimycotics. The next day, the cultures were treated in triplicate with compound concentrations ranging from 2 μM to 8 μM increments. For compound 12, additional experiments were performed with concentrations of 10 μM and a series of two-fold dilutions to 156 nM. Control cultures were treated with DMSO solvent only. After 72 h of incubation, the […] 96® Non-Rad Cell Proliferation Assay (Promega) was used to quantify the remaining metabolically living cells. After subtracting blank values, the optical density (OD) readouts of the assay for the treated cultures were normalized with the average OD of the control cultures. For each compound, the experiment was repeated at least once, resulting in a minimum of 6 dose-response curves. For SHetA2, 24 response curves were available for statistical fitting parameters. A custom program was written in GNU Octave, a free software compatible with Matlab, to fit the dose-response curves with a four-parameter sigmoid function, extracting the IC50 and efficacy (the maximal % growth inhibition) parameters.
To illustrate the useful biological activity of these chroman-substituted and tetrahydroquinoline-substituted heteroarotinoids, the compounds were screened against human […] ovarian cancer cells.

The conditions of data set [2]: SHetA2, background; cited from earlier work.
Data set [3] has as its system 60 cancer cell lines available from the National Cancer Institute. The settings on record: SHetA2, background; cited from earlier work.
The mark [4] stands for this setting: A2780, 72 h, Table 1, chroman-containing series.
Setting [5] is: A2780, 72 h, Table 1, maximal % growth inhibition, A2780, 72 h, read-out: Efficacy.
[6] abbreviates: A2780, 72 h, Table 2, tetrahydroquinoline-containing members.
[7] abbreviates: A2780, 72 h, Table 2, maximal % growth inhibition, A2780, 72 h, read-out: Efficacy.

What is called IC50 is the point on the concentration scale where inhibition reaches its midpoint. Read a high IC50 as lower potency. A word on the melting point: it is the temperature, or range, at which the solid turns liquid.

Read-outs that look alike come from different tables or passages of the source.

`CCC1(CC)CC(CC)(CC)c2cc(NC(=O)Nc3ccc(OC(F)(F)F)cc3)ccc2O1` [Compound 8d, 1-(2,2,4,4-Tetraethylchroman-6-yl)-3-(4-(trifluoromethoxy)phenyl)urea] came in with a melting point of 180 to 181 °C. In data set [1] (setting [4]), this compound gave an IC50 of 3 µM. In data set [1] (setting [5]), the Emax is 67%. The “IC50 compared with SHetA2” value in data set [1] (comparison in words, A2780, 'exceeded' = lower IC50 in Table 1) is “exceeded”.
Regarding `CC1(C)CCNc2ccc(NC(=O)Nc3ccc([N+](=O)[O-])cc3)cc21` [Compound 9a, 1-(4,4-Dimethyl-1,2,3,4-tetrahydroquinolin-6-yl)-3-(4-nitrophenyl)urea], the melting point lay in the range of 219 to 220 °C. This compound also showed an IC50 in data set [1] (setting [6]) of 6.9 µM. In addition, the Emax in data set [1] (setting [7]) stood at 17.1%.
In the same order, the values of `CC1(C)CCNc2ccc(NC(=S)Nc3ccc([N+](=O)[O-])cc3)cc21` [Compound 9b, 1-(4,4-Dimethyl-1,2,3,4-tetrahydroquinolin-6-yl)-3-(4-nitrophenyl)thiourea] are 150 to 152 °C, 7.1 µM and 17.8%.
Regarding `CC1(C)CCNc2ccc(NC(=S)Nc3ccc(C(F)(F)F)cc3)cc21` [Compound 9c, 1-(4,4-Dimethyl-1,2,3,4-tetrahydroquinolin-6-yl)-3-(4-(trifluoromethyl)phenyl)thiourea], the melting point is 104 to 105 °C. The compound further showed an IC50 in data set [1] (setting [6]) of 6 µM. Moreover, the Emax in data set [1] (setting [7]) was determined as 42%.
Consider `CC1(C)CCNc2ccc(NC(=S)Nc3ccc(OC(F)(F)F)cc3)cc21` [Compound 9d, 1-(4,4-Dimethyl-1,2,3,4-tetrahydroquinolin-6-yl)-3-(4-(trifluoromethoxy)phenyl)thiourea], for which the melting point was in the range of 69 to 71 °C. In data set [1] (setting [6]), this compound had an IC50 of 7.1 µM. In addition, the Emax in data set [1] (setting [7]) stood at 24%.
The compound `CN1c2ccc(NC(=O)Nc3ccc([N+](=O)[O-])cc3)cc2C(C)(C)C(=O)C1(C)C` [Compound 11a, 1-(4-Nitrophenyl)-3-(1,2,2,4,4-pentamethyl-3-oxo-1,2,3,4-tetrahydroquinolin-6-yl)urea] showed a melting point of 200 to 201 °C. The compound also returned an IC50 in data set [1] (setting [6]) of 3.8 µM. The Emax in data set [1] (setting [7]) stood at 94.8%.
Compound `CN1c2ccc(NC(=S)Nc3ccc([N+](=O)[O-])cc3)cc2C(C)(C)C(=O)C1(C)C` [Compound 11b, 1-(4-Nitrophenyl)-3-(1,2,2,4,4-pentamethyl-3-oxo-1,2,3,4-tetrahydroquinolin-6-yl)thiourea] returned a melting point of 145 to 147 °C. Further, it took 4.4 µM to reach half-maximal inhibition in data set [1] (setting [6]) (IC50). Further, the Emax in data set [1] (setting [7]) amounted to 91.4%.
`CN1c2ccc(NC(=O)Nc3ccc(C(F)(F)F)cc3)cc2C(C)(C)C(=O)C1(C)C` [Compound 11c, 1-(1,2,2,4,4-Pentamethyl-3-oxo-1,2,3,4-tetrahydroquinolin-6-yl)-3-(4-(trifluoromethyl)phenyl)urea] displayed a melting point of 198 to 199 °C. Moreover, in data set [1] (setting [6]), the IC50 is 2.58 µM. The Emax in data set [1] (setting [7]) was determined as 90.1%.
The matching figures for `CN1c2ccc(NC(=O)Nc3ccc(OC(F)(F)F)cc3)cc2C(C)(C)C(=O)C1(C)C` [Compound 11e, 1-(1,2,2,4,4-Pentamethyl-3-oxo-1,2,3,4-tetrahydroquinolin-6-yl)-3-(4-(trifluoromethoxy)phenyl)urea]: 191 to 192 °C, 2.4 µM and 91.3%.
For the compound `CN1c2ccc(NC(=S)Nc3ccc(OC(F)(F)F)cc3)cc2C(C)(C)C(=O)C1(C)C` [Compound 11f, 1-(1,2,2,4,4-Pentamethyl-3-oxo-1,2,3,4-tetrahydroquinolin-6-yl)-3-(4-(trifluoromethoxy)phenyl)thiourea], the melting point is 83 to 85 °C. Also, in data set [1] (setting [6]), the IC50 is 5.4 µM. Also, the Emax in data set [1] (setting [7]) was 76%.
Take `CN1c2ccc(NC(=S)Nc3ccc([N+](=O)[O-])cc3)cc2C(C)(C)CC1(C)C` [Compound 12, 3-(1,2,2,4,4-Pentamethyl-1,2,3,4-tetrahydroquinolin-6-yl)-1-(4-nitrophenyl)thiourea]: the melting point is 151 to 153 °C. This compound also showed a concentration for half-maximal inhibition (IC50) in data set [1] (setting [6]) of 4.49 µM. Besides, the Emax in data set [1] (setting [7]) turned out to be 91.7%.
In the case of `CN1c2ccc(NC(=O)Nc3ccc([N+](=O)[O-])cc3)cc2C(C)(C)C(O)C1(C)C` (stereo not drawn) [Compound 13a, 1-(3-Hydroxy-1,2,2,4,4-pentamethyl-1,2,3,4-tetrahydroquinolin-6-yl)-3-(4-nitrophenyl)urea], the melting point lay in the range of 215 to 217 °C. The compound further registered an IC50 in data set [1] (setting [6]) of 8.4 µM. The Emax in data set [1] (setting [7]) turned out to be 26%.
In the same order, the values of `CN1c2ccc(NC(=O)Nc3ccc(C(F)(F)F)cc3)cc2C(C)(C)C(O)C1(C)C` (stereo not drawn) [Compound 13c, 1-(3-Hydroxy-1,2,2,4,4-pentamethyl-1,2,3,4-tetrahydroquinolin-6-yl)-3-(4-(trifluoromethyl)phenyl)urea] are 213 to 215 °C, 6.7 µM and 25%.
The matching figures for `CN1c2ccc(NC(=S)Nc3ccc(C(F)(F)F)cc3)cc2C(C)(C)C(O)C1(C)C` (stereo not drawn) [Compound 13d, 1-(3-Hydroxy-1,2,2,4,4-pentamethyl-1,2,3,4-tetrahydroquinolin-6-yl)-3-(4-(trifluoromethyl)phenyl)thiourea]: 105 to 107 °C, 7.6 µM and 56.1%.
The matching figures for `CN1c2ccc(NC(=O)Nc3ccc(OC(F)(F)F)cc3)cc2C(C)(C)C(O)C1(C)C` (stereo not drawn) [Compound 13e, 1-(3-Hydroxy-1,2,2,4,4-pentamethyl-1,2,3,4-tetrahydroquinolin-6-yl)-3-(4-(trifluoromethoxy)phenyl)urea]: 188 to 189 °C, 7.8 µM and 23.6%.
Regarding `CN1c2ccc(NC(=S)Nc3ccc(OC(F)(F)F)cc3)cc2C(C)(C)C(O)C1(C)C` (stereo not drawn) [Compound 13f, 1-(3-Hydroxy-1,2,2,4,4-pentamethyl-1,2,3,4-tetrahydroquinolin-6-yl)-3-(4-(trifluoromethoxy)phenyl)thiourea], the melting point fell in the range of 97 to 99 °C. Besides, in data set [1] (setting [6]), the IC50 came to 13.1 µM. Further, in data set [1] (setting [7]), the Emax came out at 15.3%.
Turning to `CC1(C)CC(C)(C)c2cc(NC(=S)Nc3ccc([N+](=O)[O-])cc3)ccc2S1` [SHetA2, reference compound], the concentration for half-maximal inhibition (IC50) in data set [1] (setting [4]) turned out to be 3.17 µM; in data set [1] (setting [6]), 3.17 µM; in data set [1] (A2780, Table 3, 14 series (thiochroman), A2780) it was 3.17 ± 0.1 µM; in data set [1] (A2780, running text, A2780), 3 µM. The Emax in data set [1] (setting [5]) was determined as 84.3%; in data set [1] (setting [7]) it was 84.3%; in data set [1] (A2780, Table 3, 14 series, A2780, read-out: % Efficacy) it was 84.3 ± 0.7%. The “birth defects in animal studies” value in data set [2] was “does not cause birth defects”. Moreover, the skin irritation result in data set [2] is listed as “no skin irritation”. Moreover, in data set [2], the “toxicity toward normal tissues” value is given as “essentially no toxicity toward normal tissues”. Moreover, the “growth inhibition of cancer cell lines” value in data set [3] was “inhibits the growth of all 60 cancer cell lines”.

Values taken from patent publication US11993573B2, “Chromane-substituted, tetrahydroquinoline-substituted and thiochromane-substituted heteroarotinoids as anti-cancer agents” (THE BOARD OF REGENTS FOR OKLAHOMA STATE UNIVERSITY, priority 2018, dated 2024).
